Entries after “also recorded” stand apart in the source; their conditions may differ.
B1: CD45 recombinant protein: Human CD45 recombinant protein obtained from CALBIOCHEM, added at 20 U/mL (protein, UniProt P08575 26-1306, looked up)
Receptor-type …: QSPTPSPTGLTTAKMPSVPLSSDPLPTHTTAFSPASTFERENDFSETTTSLSPDNTSTQVSPDSLDNASAFNTTGVSSVQTPHLPTHADSQTPSAGTDTQTFSGSAANAKLNPTPGSNAISDVPGERSTASTFPTDPVSPLTTTLSLAHHSSAALPARTSNTTITANTSDAYLNASETTTLSPSGSAVISTTTIATTPSKPTCDEKYANITVDYLYNKETKLFTAKLNVNENVECGNNTCTNNEVHNLTECKNASVSISHNSCTAPDKTLILDVPPGVEKFQLHDCTQVEKADTTICLKWKNIETFTCDTQNITYRFQCGNMIFDNKEIKLENLEPEHEYKCDSEILYNNHKFTNASKIIKTDFGSPGEPQIIFCRSEAAHQGVITWNPPQRSFHNFTLCYIKETEKDCLNLDKNLIKYDLQNLKPYTKYVLSLHAYIIAKVQRNGSAAMCHFTTKSAPPSQVWNMTVSMTSDNSMHVKCRPPRDRNGPHERYHLEVEAGNTLVRNESHKNCDFRVKDLQYSTDYTFKAYFHNGDYPGEPFILHHSTSYNSKALIAFLAFLIIVTSIALLVVLYKIYDLHKKRSCNLDEQQELVERDDEKQLMNVEPIHADILLETYKRKIADEGRLFLAEFQSIPRVFSKFPIKEARKPFNQNKNRYVDILPYDYNRVELSEINGDAGSNYINASYIDGFKEPRKYIAAQGPRDETVDDFWRMIWEQKATVIVMVTRCEEGNRNKCAEYWPSMEEGTRAFGDVVVKINQHKRCPDYIIQKLNIVNKKEKATGREVTHIQFTSWPDHGVPEDPHLLLKLRRRVNAFSNFFSGPIVVHCSAGVGRTGTYIGIDAMLEGLEAENKVDVYGYVVKLRRQRCLMVQVEAQYILIHQALVEYNQFGETEVNLSELHPYLHNMKKRDPPSEPSPLEAEFQRLPSYRSWRTQHIGNQEENKSKNRNSNVIPYDYNRVPLKHELEMSKESEHDSDESSDDDSDSEEPSKYINASFIMSYWKPEVMIAAQGPLKETIGDFWQMIFQRKVKVIVMLTELKHGDQEICAQYWGEGKQTYGDIEVDLKDTDKSSTYTLRVFELRHSKRKDSRTVYQYQYTNWSVEQLPAEPKELISMIQVVKQKLPQKNSSEGNKHHKSTPLLIHCRDGSQQTGIFCALLNLLESAETEEVVDIFQVVKALRKARPGMVSTFEQYQFLYDVIASTYPAQNGQVKKNNHQEDKIEFDNEVDKVKQDANCVNPLGAPEKLPEAKEQAEGSEPTSGTEGPEHSVNGPASPALNQGS

Legend:
[1] = test system: primary cultured microglial cells; assay: TNF-α ELISA on primary cultured microglial cells; assay type: cell-based, mouse; conditions: for TNF-α release induced by phen and Aβ peptides: microglia activated with phen (5 mM) and Aβ peptides (1000 nM), 12 h, effect of added agent; for TNF-α production (microglial activation): phosphatase inhibitor co-treated with Aβ peptides (1000 nM), wild-type microglia, 12 hours
Protocol: (§1) Breeding pairs of BALB/c and CD45 deficient (C57BL/601aHsd-Ptprc) mice were purchased from Jackson Laboratory (Bar Harbor, Maine) and housed in the animal facility at the University of South Florida Health Science Center. Tg APPSW mice are the 2576 line backcrossed to C57B6/SJL as previously described (Hsiao et al., 1995; Hsiao et al., 1996). Murine primary culture microglia were isolated from mouse cerebral cortices and were grown in RPMI medium supplemented with 5% fetal calf serum, 2 mM glutamine, 100 U/mL penicillin, […] streptomycin and 0.05 mM 2-mercaptoethanol according to previously described methods (Chao et al., 1992). Briefly, cerebral cortices from newborn mice (1-2 days old) were isolated under sterile conditions and were kept at 4 degrees Centigrade prior to mechanical dissociation. Cells were plated in […] flasks and complete medium was added. Primary cultures were kept for 14 days so that only glial cells remained, and microglia were isolated by shaking flasks at 200 rpm in a LabLine TM Incubator-Shaker. More than 98% of these glial cells stained positive for Mac-1 (CD11b /CD18; Boehringer Mannheim Biochemicals, Indianapolis, Ind.). Mouse primary culture neuronal cells were prepared as previously described (Chao et al., 1992). Briefly, cerebral cortices were isolated from BALB/c mouse embryos, between 15 to 17 days in utero, and cortices were mechanically dissociated in trypsin ([…]) following incubation for 15 min at 37° C. Cells were collected following centrifugation at 1200 rpm and resuspended in DMEM (GIBCO, Gaithersburg, Md.) supplemented with 10% fetal calf serum, 10% horse serum, uridine (33.6 mg/mL, Sigma Chemical-Co., St. Louis, Mo.) and fluorodeoxyuridine (1 3.6 mg/mL, Sigma) and plated in 24 well tissue-culture plates at 2.5×1 O′ cells/well after collagen-coating the plates. After 10 days in vitro, cells were passed in preparation for subsequent experiments. […] To verify CD45 deficiency status, CD45 expression in microglia isolated from CD45 -deficient mice was determined by FACS (fluorescence activated cell sorter) analysis as previously described (Tan et al., 1999a), and CD45 was undetectable in these cells (data not shown).
(§2) Primary cultured microglial cells were plated in 24-well tissue-culture plates (Costar, Cambridge, Mass.) at 5×10^4 cells/well and stimulated for 12 h with phen ([…]), Aβ peptides (1000 nM) or phen/Aβ peptides in the presence or absence of anti-CD45 antibody (1:200) or PD98059 ([…]) pre-treatment for 1 hour, or appropriate controls. […] The Bio-Rad protein assay (Bio-Rad Laboratories, Hercules, Calif.) was performed to measure total cellular protein from each of the cell groups under consideration just prior to quantification of cytokine release by ELISA or NO secretion by NO assay.

p44/22 MAPK [2] = assay: Western immunoblotting of phosphorylated/total p44/22 MAPK in microglial cell lysates; assay type: cell-based, mouse; conditions: microglia co-treated with phen and Aβ peptides; effect of added agent
Protocol: Murine primary culture microglia were plated in 6 well tissue-culture plates at a density of 8×10^5 cells/well. These cells were incubated for 30 min with or without phen ([…]) and Aβ peptides (1000 nM) in the presence or absence of anti-CD45 or control antibodies (1:200 dilution for each) or PD98059 ([…]) pre-treatment for 1 hour, or appropriate controls. Immediately following culturing, microglia were washed in ice-cold phosphate buffered saline (PBS) 3×, scraped into ice-cold PBS, and lysed in an ice-cold lysis buffer containing 20 mM Tris (pH 7.5), 150 mM NaCl, 1 mM EDTA, 1 mM EGTA, 1% Triton X-100, 2.5 mM sodium pyrophosphate, 1 mM b-glycerolphosphate, 1 mM Na3VO4, 1 μg/mL leupeptin, and 1 mM PMSF. After incubation for 30 min. on ice, samples were centrifuged at high speed for 15 minutes, and supernatants were collected. Total protein content was estimated using the Bio-Rad protein assay. An aliquot corresponding to 50 μg of total protein of each sample was separated by SDS-PAGE and transferred electrophoretically to Hy-bond PVDF membranes. Non-specific antibody binding was blocked with 5% non-fat dry milk for 1 h at room temperature in TBS (20 mM Tris, 500 mM NaCl, pH 7.5). […] Densiometric analysis was preformed for all blots using the Fluor-S Multimager™ with Quantity One™ software (Bio-Rad, Calif.).

p44/22 MAPK [3] = assay: Immune complex kinase assay (phospho-Elk 1) in microglial cell lysates; assay type: cell-based, mouse; conditions: microglia co-treated with phen and Aβ peptides; effect of added agent
Protocol: Primary culture microglial cells were seeded in 6-well tissue-culture plates at 8×10^5 per well. Thirty minutes following co-treatment with phen and Aβ peptides in the presence or absence of anti-CD45 antibody or appropriate controls, microglial cells were lysed in ice-cold lysis buffer (as described above). Total cellular protein was quantified with the BioRad protein assay, and an aliquot of […] of protein for each treatment condition was separated by SDS-PAGE. p44/22 MAPK activity was determined using the p44/22 MAP-Kinase Assay Kit (New England BioLabs, Beverly, Mass.) in strict accordance with the manufacturer's instruction. The phosphorylated form of the Elk 1 p44/22 MAPK fusion protein was visualized by Western immunoblotting (as described above) using a specific antibody for phosphorylated Elk 1 supplied with the kit.

[4] = test system: primary cultured microglial cells; assay: Nitric oxide (NO) release assay on primary cultured microglial cells; assay type: cell-based, mouse; conditions: for NO release induced by phen and Aβ peptides: microglia activated with phen (5 mM) and Aβ peptides (1000 nM), 12 h, effect of added agent; for NO release (microglial activation): phosphatase inhibitor co-treated with Aβ peptides (1000 nM), wild-type microglia, 12 hours
Protocol: as §1, §2

Tg APPSW mice = Tg APPSW mice given ibuprofen; cited from earlier work

| Molecule | TNF-α release induced by phen and Aβ peptides [1] | NO release induced by phen and Aβ peptides [4] | TNF-α production (microglial activation) [1] | NO release (microglial activation) [4] | further results |
| --- | --- | --- | --- | --- | --- |
| COc1cccc(-c2cc(=O)c3ccccc3o2)c1N [PD98059] | markedly decreased; also recorded: statistically interactive blockade | markedly decreased; also recorded: statistically interactive blockade | – | – | phen and Aβ-mediated phosphorylation of p44/22 MAPK (p44/22 MAPK [2]): significant reduction; phen and Aβ-mediated activity of p44/22 MAPK (p44/22 MAPK [3]): significant reduction |
| C=C1[C@@H](O)[C@@H]2O[C@]3(CC[C@H](/C=C/[C@@H](C)[C@@H]4CC(C)=C[C@@]5(O[C@H](C[C@@](C)(O)C(=O)O)CC[C@H]5O)O4)O3)CC[C@H]2O[C@@H]1[C@@H](O)C[C@H](C)[C@H]1O[C@@]2(CCCCO2)CC[C@H]1C [okadaic acid] | – | – | not detectable | not detectable | – |
| [Na+].[Na+].[Na+].[O]=[V]([O-])([O-])[O-] [sodium orthovanadate] | – | – | results similar to phen and Aβ peptide co-treatment | results similar to phen and Aβ peptide co-treatment | – |
| CC(C)Cc1ccc(C(C)C(=O)O)cc1 (centres unmarked) [ibuprofen] | – | – | – | – | Aβ deposits, astrocytosis, and dystrophic neurites (Tg APPSW mice): reduction |
| B1 | markedly decreased | markedly decreased | – | – | – |

Reference: US20020102259A1, “Methods and compositions for stimulating CD 45 and thereby suppressing microglial activation associated with Alzheimer's disease” (priority 2000, published 2002)
